In patent US10597388B2, “Pyridazinone herbicides” (FMC CORPORATION, priority 2014, dated 2020):

Assays:
Type in all cases: in vivo
[1] = test system: barnyardgrass (Echinochloa crus-galli); experiment: Test C greenhouse herbicide test, pre- and postemergence
Excerpt: (§1) Seeds of plant species selected from blackgrass (Alopecurus myosuroides), ryegrass, Italian (Italian ryegrass, Lolium multiflorum), wheat (winter wheat, Triticum aestivum), galium (catchweed bedstraw, Galium aparine), corn (Zea mays), large crabgrass, large (large crabgrass, Digitaria sanguinalis), foxtail, giant (giant foxtail, Setaria faberii), johnsongrass (Sorghum halepense), lambsquarters (Chenopodium album), morningglory (Ipomoea coccinea), nutsedge, yellow (yellow nutsedge, Cyperus esculentus), pigweed (Amaranthus retroflexus), ragweed (common ragweed, Ambrosia elatior), soybean (Glycine max), barnyardgrass (Echinochloa crus-galli), oilseed rape (Brassica napus), waterhemp (common waterhemp, Amaranthus rudis), and velvetleaf (Abutilon theophrasti) were planted into a blend of loam soil and sand and treated preemergence with test chemicals formulated in a non-phytotoxic solvent mixture which included a surfactant.
(§2) At the same time, plants selected from these crop and weed species and also chickweed (common chickweed, Stellaria media), kochia (Kochia scoparia), and oat, wild (wild oat, Avena fatua), were planted in pots containing Redi-Earth® planting medium (Scotts Company, 14111 Scottslawn Road, Marysville, Ohio 43041) comprising spaghnum peat moss, vermiculite, wetting agent and starter nutrients and treated with postemergence applications of test chemicals formulated in the same manner. Plants ranged in height from 2 to 18 cm (1- to 4-leaf stage) for postemergence treatments. Treated plants and controls were maintained in a greenhouse for 13 to 15 d, after which time all species were compared to controls and visually evaluated. Plant response ratings, summarized in Table C, are based on a scale of 0 to 100 where 0 is no effect and 100 is complete control. A dash (-) response means no test result.

[2] = test system: galium (catchweed bedstraw, Galium aparine); experiment: as above
Excerpt: as §1, §2

[3] = test system: velvetleaf (Abutilon theophrasti); experiment: as above
Excerpt: as §1, §2

[4] = test system: pigweed (Amaranthus retroflexus); experiment: Test A greenhouse herbicide test, pre- and postemergence
Outline: (§3)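 Visual injury ratings, 0 (no effect) to 100 (complete control), versus untreated plants after roughly 10 d in a greenhouse. Compounds, formulated in a surfactant-containing non-phytotoxic solvent, were sprayed on loam–sand soil after sowing (pre) or on one- to two-leaf plants 2–10 cm tall (post).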

[5] = test system: barnyardgrass (Echinochloa crus-galli); experiment: as above
Outline: as §3

[6] = test system: ryegrass, Italian (Italian ryegrass, Lolium multiflorum); experiment: as above
Outline: as §3

corn (Zea mays) = experiment: as above; details: Postemergence; for Corn plant response rating: 0 to 100 scale, 0 is no effect, 100 is complete control
Outline: as §3

[7] = test system: wheat (Triticum aestivum); experiment: as above; details: Postemergence; for Wheat plant response rating: 0 to 100 scale, 0 is no effect, 100 is complete control
Outline: as §3

kochia (Kochia scoparia) = experiment: as above
Outline: as §3

[8] = test system: foxtail, giant (giant foxtail, Setaria faberii); experiment: as above
Outline: as §3

[9] = test system: ragweed (common ragweed, Ambrosia elatior); experiment: as above
Outline: as §3

[10] = Postemergence, 31 g ai/ha, 0 to 100 scale (0 no effect, 100 complete control)
[11] = Postemergence, 125 g ai/ha, scale 0 to 100, 0 is no effect, 100 is complete control
[12] = Postemergence, 250 g ai/ha, scale 0 to 100, 0 no effect, 100 complete control, 13 to 15 d
[13] = postemergence, 62 g ai/ha, scale 0 to 100, 0 no effect, 100 complete control
[14] = Postemergence, 125 g ai/ha, 0 to 100 scale where 0 is no effect and 100 is complete control
[15] = Postemergence, 500 g ai/ha, 0 to 100 scale, 0 is no effect, 100 is complete control
[16] = Preemergence, 125 g ai/ha, 0 to 100 scale where 0 is no effect and 100 is complete control
[17] = Preemergence, 500 g ai/ha, 0 to 100 scale, 0 no effect, 100 complete control
[18] = 125 g ai/ha, 0 to 100 scale where 0 is no effect and 100 is complete control
[19] = Preemergence, 31 g ai/ha, scale 0 to 100, 0 is no effect, 100 is complete control
[20] = Preemergence, 62 g ai/ha, scale 0 to 100, 0 is no effect, 100 is complete control
[21] = Preemergence, 125 g ai/ha, scale 0 to 100, 0 is no effect, 100 is complete control
[22] = Preemergence, 250 g ai/ha, scale 0 to 100 (0 no effect, 100 complete control)
[23] = Postemergence, 31 g ai/ha, scale 0 to 100 (0 no effect, 100 complete control)
[24] = Postemergence, 500 g ai/ha, visual rating after approx. 10 d, 0 to 100 scale (0 no effect, 100 complete control)
[25] = Preemergence, 500 g ai/ha, 0 to 100 scale where 0 is no effect and 100 is complete control
[26] = 500 g ai/ha, visual rating after approx. 10 d, 0 to 100 scale (0 no effect, 100 complete control)

In the case of `Cc1cc(C)c2ccccc2c1-c1c(O)cnn(C)c1=O` [Compound 51], the “Barnyardgrass plant response rating” value [1, 10] is reported as 5, the “Plant response rating, Barnyardgrass” value [1, 11] is reported as 10 and the “Plant response rating, Barnyardgrass” value [1, 12] is reported as 20. For the same compound, the “Barnyardgrass plant response rating” value [1, 13] was 5, the “Galium plant response rating” value [2, 10] was 85 and the “Plant response rating, Galium” value [2, 11] was 90. For the same compound, the “Plant response rating, Galium” value [2, 12] was 95, the “Galium plant response rating” value [2, 13] was 90 and the “Velvetleaf plant response rating” value [3, 10] was 5. The “Plant response rating, Velvetleaf” value [3, 11] was 50, the “Plant response rating, Velvetleaf” value [3, 12] was 70 and the “Velvetleaf plant response rating” value [3, 13] was 20. The “Plant response rating, Pigweed” value [4, 14] was 70, the “Pigweed plant response rating” value [4, 15] was 90 and the “Pigweed plant response rating” value [4, 16] was 70. For the same compound, the “Plant response rating, Pigweed” value [4, 17] was 100, the “Plant response rating, Barnyardgrass” value [5, 14] was 20 and the “Barnyardgrass plant response rating” value [5, 15] was 80. For the same compound, the “Barnyardgrass plant response rating” value [5, 16] was 30, the “Plant response rating, Barnyardgrass” value [5, 17] was 90 and the “Plant response rating, Ryegrass, Italian” value [6, 14] was 60. For the same compound, the “Ryegrass, Italian plant response rating” value [6, 15] was 90, the “Ryegrass, Italian plant response rating” value [6, 16] was 50 and the “Plant response rating, Ryegrass, Italian” value [6, 17] was 90. For the same compound, the “Plant response rating, Corn” value (corn (Zea mays); [18]) was 0, the “Corn plant response rating” value (corn (Zea mays); 500 g ai/ha) was 0 and the “Plant response rating, Wheat” value [7, 18] was 0. For the same compound, the “Wheat plant response rating” value ([7]; 500 g ai/ha) was 0, the “Plant response rating, Kochia” value (kochia (Kochia scoparia); [14]) was 70 and the “Kochia plant response rating” value (kochia (Kochia scoparia); [15]) was 90. For the same compound, the “Kochia plant response rating” value (kochia (Kochia scoparia); [16]) was 0, the “Plant response rating, Kochia” value (kochia (Kochia scoparia); [17]) was 30 and the “Plant response rating, Foxtail, Giant” value [8, 14] was 50. The “Foxtail, Giant plant response rating” value [8, 15] was 80, the “Foxtail, Giant plant response rating” value [8, 16] was 50 and the “Plant response rating, Foxtail, Giant” value [8, 17] was 90. For the same compound, the “Plant response rating, Ragweed” value [9, 14] was 70, the “Ragweed plant response rating” value [9, 15] was 70 and the “Ragweed plant response rating” value [9, 16] was 30. For the same compound, the “Plant response rating, Ragweed” value [9, 17] was 80.

In the case of `CCC(=O)Oc1c(C)nn(C)c(=O)c1-c1c(C)sc2ccc(C)cc12` [Compound 42], the “Barnyardgrass plant response rating” value [1, 10] is reported as 20, the “Plant response rating, Barnyardgrass” value [1, 11] is reported as 30 and the “Plant response rating, Barnyardgrass” value [1, 12] is reported as 40. For the same compound, the “Plant response rating, Barnyardgrass” value [1, 19] was 0, the “Plant response rating, Barnyardgrass” value [1, 20] was 30 and the “Plant response rating, Barnyardgrass” value [1, 21] was 60. For the same compound, the “Barnyardgrass plant response rating” value [1, 22] was 80, the “Barnyardgrass plant response rating” value [1, 13] was 30 and the “Galium plant response rating” value [2, 10] was 95. The “Plant response rating, Galium” value [2, 11] was 100, the “Plant response rating, Galium” value [2, 12] was 95 and the “Plant response rating, Galium” value [2, 19] was 90. For the same compound, the “Plant response rating, Galium” value [2, 20] was 90, the “Plant response rating, Galium” value [2, 21] was 95 and the “Galium plant response rating” value [2, 22] was 98. The “Galium plant response rating” value [2, 13] was 90, the “Velvetleaf plant response rating” value [3, 10] was 45 and the “Plant response rating, Velvetleaf” value [3, 11] was 85. For the same compound, the “Plant response rating, Velvetleaf” value [3, 12] was 95, the “Plant response rating, Velvetleaf” value [3, 19] was 85 and the “Plant response rating, Velvetleaf” value [3, 20] was 90. The “Plant response rating, Velvetleaf” value [3, 21] was 90, the “Velvetleaf plant response rating” value [3, 22] was 98 and the “Velvetleaf plant response rating” value [3, 13] was 85. For the same compound, the “Plant response rating, Pigweed” value [4, 14] was 90, the “Pigweed plant response rating” value [4, 15] was 100 and the “Pigweed plant response rating” value [4, 16] was 100. For the same compound, the “Plant response rating, Pigweed” value [4, 17] was 100, the “Plant response rating, Barnyardgrass” value [5, 14] was 30 and the “Barnyardgrass plant response rating” value [5, 15] was 90. For the same compound, the “Barnyardgrass plant response rating” value [5, 16] was 80, the “Plant response rating, Barnyardgrass” value [5, 17] was 100 and the “Plant response rating, Ryegrass, Italian” value [6, 14] was 100. For the same compound, the “Ryegrass, Italian plant response rating” value [6, 15] was 100, the “Ryegrass, Italian plant response rating” value [6, 16] was 100 and the “Plant response rating, Ryegrass, Italian” value [6, 17] was 100. The “Plant response rating, Corn” value (corn (Zea mays); [18]) was 0, the “Corn plant response rating” value (corn (Zea mays); 500 g ai/ha) was 20 and the “Plant response rating, Wheat” value [7, 18] was 0. For the same compound, the “Wheat plant response rating” value ([7]; 500 g ai/ha) was 20, the “Plant response rating, Kochia” value (kochia (Kochia scoparia); [14]) was 100 and the “Kochia plant response rating” value (kochia (Kochia scoparia); [15]) was 100. The “Kochia plant response rating” value (kochia (Kochia scoparia); [16]) was 80, the “Plant response rating, Kochia” value (kochia (Kochia scoparia); [17]) was 100 and the “Plant response rating, Foxtail, Giant” value [8, 14] was 90. The “Foxtail, Giant plant response rating” value [8, 15] was 100, the “Foxtail, Giant plant response rating” value [8, 16] was 80 and the “Plant response rating, Foxtail, Giant” value [8, 17] was 100. The “Plant response rating, Ragweed” value [9, 14] was 100, the “Ragweed plant response rating” value [9, 15] was 100 and the “Ragweed plant response rating” value [9, 16] was 90. The “Plant response rating, Ragweed” value [9, 17] was 100.

In the case of `CCC(=O)Oc1c(Cl)nn(C)c(=O)c1-c1c(C)sc2ccc(Cl)cc12` [Compound 111], the “Plant response rating, Barnyardgrass” value [1, 23] is reported as 10, the “Plant response rating, Barnyardgrass” value [1, 11] is reported as 45 and the “Plant response rating, Barnyardgrass” value [1, 12] is reported as 40. The “Plant response rating, Barnyardgrass” value [1, 19] was 10, the “Plant response rating, Barnyardgrass” value [1, 20] was 20 and the “Plant response rating, Barnyardgrass” value [1, 21] was 55. For the same compound, the “Barnyardgrass plant response rating” value [1, 22] was 85, the “Barnyardgrass plant response rating” value [1, 13] was 30 and the “Plant response rating, Galium” value [2, 23] was 95. The “Plant response rating, Galium” value [2, 11] was 95, the “Plant response rating, Galium” value [2, 12] was 95 and the “Plant response rating, Galium” value [2, 19] was 80. The “Plant response rating, Galium” value [2, 20] was 80, the “Plant response rating, Galium” value [2, 21] was 100 and the “Galium plant response rating” value [2, 22] was 100. For the same compound, the “Plant response rating, Velvetleaf” value [3, 23] was 40, the “Plant response rating, Velvetleaf” value [3, 11] was 98 and the “Plant response rating, Velvetleaf” value [3, 12] was 90. For the same compound, the “Plant response rating, Velvetleaf” value [3, 19] was 65, the “Plant response rating, Velvetleaf” value [3, 20] was 70 and the “Plant response rating, Velvetleaf” value [3, 21] was 95. For the same compound, the “Velvetleaf plant response rating” value [3, 22] was 100, the “Plant response rating, Pigweed” value [4, 14] was 100 and the “Plant response rating, Pigweed” value [4, 24] was 100. The “Pigweed plant response rating” value [4, 16] was 90, the “Plant response rating, Pigweed” value [4, 25] was 100 and the “Plant response rating, Barnyardgrass” value [5, 14] was 40. The “Plant response rating, Barnyardgrass” value [5, 24] was 90, the “Barnyardgrass plant response rating” value [5, 16] was 70 and the “Plant response rating, Barnyardgrass” value [5, 25] was 100. For the same compound, the “Plant response rating, Ryegrass, Italian” value [6, 14] was 90, the “Plant response rating, Ryegrass, Italian” value [6, 24] was 100 and the “Ryegrass, Italian plant response rating” value [6, 16] was 90. The “Plant response rating, Ryegrass, Italian” value [6, 25] was 100, the “Plant response rating, Corn” value (corn (Zea mays); [18]) was 0 and the “Plant response rating, Corn” value (corn (Zea mays); [26]) was 20. The “Plant response rating, Wheat” value [7, 18] was 20, the “Plant response rating, Wheat” value [7, 26] was 30 and the “Plant response rating, Kochia” value (kochia (Kochia scoparia); [14]) was 40. For the same compound, the “Plant response rating, Kochia” value (kochia (Kochia scoparia); [24]) was 90, the “Kochia plant response rating” value (kochia (Kochia scoparia); [16]) was 60 and the “Plant response rating, Kochia” value (kochia (Kochia scoparia); [25]) was 100. For the same compound, the “Plant response rating, Foxtail, Giant” value [8, 14] was 70, the “Plant response rating, Foxtail, Giant” value [8, 24] was 100 and the “Foxtail, Giant plant response rating” value [8, 16] was 80. The “Plant response rating, Foxtail, Giant” value [8, 25] was 100, the “Plant response rating, Ragweed” value [9, 14] was 70 and the “Plant response rating, Ragweed” value [9, 24] was 100. For the same compound, the “Ragweed plant response rating” value [9, 16] was 80 and the “Plant response rating, Ragweed” value [9, 25] was 90.
